These results are taken from paper PMC8151276, “An Integrated Approach toward NanoBRET Tracers for Analysis of GPCR Ligand Engagement” (Molecules, 2021).

The structures appear in SMILES notation.

Type in all cases: binding
For assay [1], the target named is T1, PDGFRB (Homo sapiens, UniProt P09619).
T1 construct: purchased Promega (in-house HiBiT-GPCR construct library, NanoBRET)
The experiment in a line: NanoBRET screen HiBiT-PDGFRB in HEK293. On the procedure:
(§1) Each tracer candidate was screened across the entire library of HiBiT-GPCR constructs using NanoBRET as the detection modality. As depicted in Figure 4A, the specificity of interactions was evaluated through decrease in BRET due to competitive displacement of a bound tracer by excess parental compound. Each tracer was analyzed for binding to each HiBiT-GPCR fusion in the absence and in the presence of competing parental compound. Briefly, HEK293 cells were transfected with HiBiT-GPCR constructs diluted into promoterless DNA to reduce expression and maximize translocation to the cell surface. Each tracer candidate was then screened at concentrations of 1 μM and 0.1 μM across cells expressing these fusions. Cells were treated for 1.5 h with tracer either alone or in the presence of 20 μM competing parental compound (i.e., control). BRET was measured upon addition of purified LgBiT and subsequent complementation with HiBiT genetically fused to a GPCR. The specificity of interactions was assessed through a decrease in BRET signal due to competitive displacement of the bound tracer. To further gauge the robustness of these interactions, the fold response over the control (i.e., BRETtracer/BRETcontrol) was calculated. We chose a 1.5-fold response, which translates to ≥7-fold signal over noise as the minimal threshold required to score an interaction as positive. […]. Below we highlight the screening results obtained for our exemplary fluorescent tracers based on Clozapine, Amitriptyline and AZD1283.
(§2) HiBiT-GPCR DNA constructs were diluted in 10 mM Tris pH 8 to a final concentration of 0.01 μg/μL, arrayed in 96-well plates and stored at −20 °C. For transfection, HEK293 cells were suspended in Opti-MEM (without phenol red) supplemented with 2% fetal bovine serum (Seradigm) and 100 units/mL penicillin–streptomycin (Gibco) at a final concentration of 220,000 cells/mL and dispensed into white 96-well plates at 90 μL/well. Subsequent transfections and screens were carried using an Agilent Bravo Automated Liquid Handling Platform. First, the 96-well HiBiT DNA arrays were diluted 25-fold in Opti-MEM (without serum or phenol red) to a final concentration of 0.0004 μg/μL and 20 μL of the diluted DNAs were transferred into new 96-well plates. Next, promoterless carrier DNA (1 μg/μL) was diluted 25-fold (0.04 μg/μL) and then dispensed into the diluted arrays at 20 μL/well. Following brief mixing, Viafect transfection reagent (Promega) diluted 16-fold into Opti-MEM was dispensed into the plates at 40 μL/well. After mixing by pipetting, plates were incubated for 10 min on the pipetting station deck. The DNA-transfection reagent complexes were then added to plates containing cells. To facilitate the screen, 10 μL of DNA-transfection reagent complexes were added in duplicates to the top 4 and bottom 4 rows, resulting in two identical 48-well arrays per plate. Plates with transfected cells were incubated for 18–20 h at 37 °C/5% CO2. A screen of each tracer across the entire library using two different concentrations requires duplicate plates of transfected cells. Depending on the number of tracers being screened, transfections can be scaled up using the same ratios. The next day, for each tracer, four 20× screening solutions in tracer dilution buffer (Promega) were prepared: two duplicates at final concentration of 20 μM and two duplicates at a final concentration of 2 μM. A competing unmodified compound was added to one of each duplicate at a final concentration of 400 μM. The four resulting solutions were diluted 4-fold in Opti-MEM without serum or phenol red to generate 5× solutions (5 µM and 0.5 µM tracer +/− 100 μM competing compound). To screen the library, a BioTek MultiFlo FX liquid dispenser was used to dispense 22.5 µL of tracer solution to the top 4 rows and 22.5 µL tracer + competing compound solution to the 4 bottom rows. Plates were briefly mixed on an orbital shaker and incubated for 1.5 h at room temperature. […]

Assay [2] deals with T2, LHCGR (Homo sapiens, UniProt P22888).
T2 construct: purchased Promega (in-house HiBiT-GPCR construct library, NanoBRET)
T2 sequence (P22888 27-699): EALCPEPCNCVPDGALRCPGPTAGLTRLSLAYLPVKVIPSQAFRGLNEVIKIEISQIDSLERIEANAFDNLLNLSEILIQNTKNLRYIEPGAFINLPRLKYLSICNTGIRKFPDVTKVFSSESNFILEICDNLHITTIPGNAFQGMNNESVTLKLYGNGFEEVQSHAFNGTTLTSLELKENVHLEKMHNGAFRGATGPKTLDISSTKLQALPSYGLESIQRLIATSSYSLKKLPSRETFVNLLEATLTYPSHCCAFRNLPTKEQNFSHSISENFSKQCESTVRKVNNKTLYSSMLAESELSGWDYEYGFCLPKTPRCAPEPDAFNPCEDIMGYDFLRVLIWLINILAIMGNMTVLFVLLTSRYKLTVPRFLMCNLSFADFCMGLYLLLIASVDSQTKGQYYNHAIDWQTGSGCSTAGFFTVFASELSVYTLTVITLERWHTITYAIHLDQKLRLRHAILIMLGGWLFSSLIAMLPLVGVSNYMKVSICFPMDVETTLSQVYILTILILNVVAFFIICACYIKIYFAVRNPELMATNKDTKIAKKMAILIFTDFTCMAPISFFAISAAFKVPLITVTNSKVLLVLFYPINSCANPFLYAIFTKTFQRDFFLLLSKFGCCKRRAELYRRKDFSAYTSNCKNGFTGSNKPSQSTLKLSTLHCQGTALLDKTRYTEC
The experiment in a line: NanoBRET screen HiBiT-LHCGR in HEK293. On the procedure:
as §1, §2

Assay [3] concerns the target T3, XCR1 (Homo sapiens, UniProt P46094).
T3 construct: purchased Promega (in-house HiBiT-GPCR construct library, NanoBRET)
T3 sequence (P46094 1-333): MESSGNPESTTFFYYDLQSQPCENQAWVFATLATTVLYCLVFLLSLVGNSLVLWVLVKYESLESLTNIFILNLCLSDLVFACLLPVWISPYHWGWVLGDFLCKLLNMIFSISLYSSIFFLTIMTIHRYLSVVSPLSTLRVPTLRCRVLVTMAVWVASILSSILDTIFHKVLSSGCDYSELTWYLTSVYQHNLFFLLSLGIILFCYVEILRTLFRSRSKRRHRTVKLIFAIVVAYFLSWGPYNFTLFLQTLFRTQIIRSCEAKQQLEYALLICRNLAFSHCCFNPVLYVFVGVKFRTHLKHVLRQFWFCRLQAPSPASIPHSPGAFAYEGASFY
The experiment in a line: NanoBRET screen HiBiT-XCR1 in HEK293. On the procedure:
as §1, §2

The target in assay [4] is T4, ADORA1 (Homo sapiens, UniProt P30542).
T4 construct: purchased Promega (in-house HiBiT-GPCR construct library, NanoBRET)
T4 sequence (P30542 1-326): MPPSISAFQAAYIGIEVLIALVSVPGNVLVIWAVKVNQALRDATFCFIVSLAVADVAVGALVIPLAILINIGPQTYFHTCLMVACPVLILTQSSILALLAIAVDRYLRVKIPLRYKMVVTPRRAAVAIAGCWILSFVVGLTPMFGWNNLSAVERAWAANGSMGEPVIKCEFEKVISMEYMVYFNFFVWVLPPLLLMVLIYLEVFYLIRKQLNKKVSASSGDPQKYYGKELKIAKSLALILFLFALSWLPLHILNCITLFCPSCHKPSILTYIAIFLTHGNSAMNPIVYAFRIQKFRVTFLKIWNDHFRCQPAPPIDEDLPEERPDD
The experiment in a line: NanoBRET screen HiBiT-ADORA1 in HEK293. The protocol:
as §1, §2

Assay [5] deals with T5, P2RY14 (Homo sapiens, UniProt Q15391).
T5 construct: purchased Promega (in-house HiBiT-GPCR construct library, NanoBRET)
T5 sequence (Q15391 1-338): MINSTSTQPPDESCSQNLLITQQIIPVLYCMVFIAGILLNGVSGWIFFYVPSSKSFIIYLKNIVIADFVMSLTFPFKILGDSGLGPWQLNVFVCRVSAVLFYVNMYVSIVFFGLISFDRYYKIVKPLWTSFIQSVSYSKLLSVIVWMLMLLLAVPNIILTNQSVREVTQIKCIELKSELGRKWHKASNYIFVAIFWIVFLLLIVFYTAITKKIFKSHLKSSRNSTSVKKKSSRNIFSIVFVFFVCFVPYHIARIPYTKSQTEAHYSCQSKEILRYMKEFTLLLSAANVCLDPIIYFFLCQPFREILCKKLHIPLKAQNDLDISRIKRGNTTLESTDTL
The experiment in a line: NanoBRET screen HiBiT-P2RY14 in HEK293. On the procedure: as §1, §2

T1 sequence (P09619 33-1106): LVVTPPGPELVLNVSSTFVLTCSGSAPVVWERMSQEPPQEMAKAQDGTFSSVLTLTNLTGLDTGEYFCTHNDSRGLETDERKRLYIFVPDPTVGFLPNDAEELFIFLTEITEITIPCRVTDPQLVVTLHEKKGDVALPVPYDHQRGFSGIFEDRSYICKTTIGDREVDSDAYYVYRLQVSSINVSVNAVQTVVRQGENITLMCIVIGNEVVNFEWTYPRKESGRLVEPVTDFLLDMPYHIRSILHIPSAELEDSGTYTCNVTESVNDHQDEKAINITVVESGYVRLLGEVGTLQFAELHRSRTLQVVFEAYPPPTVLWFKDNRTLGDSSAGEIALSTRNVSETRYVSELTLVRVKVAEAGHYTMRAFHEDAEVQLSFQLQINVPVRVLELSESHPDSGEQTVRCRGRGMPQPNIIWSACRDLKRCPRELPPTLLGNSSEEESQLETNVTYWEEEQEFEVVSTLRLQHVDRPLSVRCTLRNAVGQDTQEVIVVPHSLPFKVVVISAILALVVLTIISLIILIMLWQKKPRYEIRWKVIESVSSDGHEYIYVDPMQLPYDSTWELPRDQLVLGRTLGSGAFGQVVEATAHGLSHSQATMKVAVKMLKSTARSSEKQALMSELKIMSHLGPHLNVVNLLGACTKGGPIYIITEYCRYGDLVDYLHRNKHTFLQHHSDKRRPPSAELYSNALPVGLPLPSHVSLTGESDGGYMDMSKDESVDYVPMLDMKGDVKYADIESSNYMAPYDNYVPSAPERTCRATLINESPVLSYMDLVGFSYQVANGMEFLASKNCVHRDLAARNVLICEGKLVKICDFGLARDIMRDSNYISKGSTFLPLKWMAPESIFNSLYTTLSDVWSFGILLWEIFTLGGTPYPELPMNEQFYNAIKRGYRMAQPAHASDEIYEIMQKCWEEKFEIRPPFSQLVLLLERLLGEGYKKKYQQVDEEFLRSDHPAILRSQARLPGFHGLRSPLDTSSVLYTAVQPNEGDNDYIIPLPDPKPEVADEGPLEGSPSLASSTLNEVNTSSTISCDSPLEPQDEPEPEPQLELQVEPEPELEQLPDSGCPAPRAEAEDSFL

For `COc1ccccc1N1CCN(CCCCN2C(=O)c3ccc(CNC(=O)CCOCCNC(=O)c4ccc(CNC(=O)CCc5ccc6n5[B-](F)(F)[N+]5=C(c7ccc[nH]7)C=CC5=C6)cc4)cc3C2=O)CC1` [NAN-190-3-NB590], the “NanoBRET Fold Response” value in assay [1] (PDGFRB, tracer 0.1μM) was found to be 0.93; in assay [1] (PDGFRB, tracer 1μM) it was 1.07; in assay [2] (LHCGR, tracer 0.1μM) it was 0.98; in assay [2] (LHCGR, tracer 1μM), 1.08; in assay [3] (XCR1, tracer 0.1μM), 1.29; in assay [3] (XCR1, tracer 1μM) it was 1.34. The “NanoBRET Fold Response” value was 1.07 in assay [4] (ADORA1, tracer 0.1μM); 0.89 in assay [4] (ADORA1, tracer 1μM); 0.95 in assay [5] (P2RY14, tracer 0.1μM); 1.06 in assay [5] (P2RY14, tracer 1μM).
Consider `O=C(CCc1ccc2n1[B-](F)(F)[N+]1=C(c3ccc[nH]3)C=CC1=C2)NCc1ccc(C(=O)NCCOCCOCCNCC(O)COc2cccc3ccccc23)cc1` (centres unmarked) [Propranolol-3-NB590], for which the “NanoBRET Fold Response” value in assay [1] (PDGFRB, 0.1μM) amounted to 1.05; in assay [1] (PDGFRB, 1μM), 0.98; in assay [2] (LHCGR, 0.1μM), 1.04; in assay [2] (LHCGR, 1μM) it was 1.00; in assay [3] (XCR1, 0.1μM), 1.02; in assay [3] (XCR1, 1μM), 0.97. The “NanoBRET Fold Response” value was 0.98 in assay [4] (ADORA1, 0.1μM); 0.98 in assay [4] (ADORA1, 1μM); 1.10 in assay [5] (P2RY14, 0.1μM); 1.00 in assay [5] (P2RY14, 1μM).
As to `COc1ccc2c(n1)c(CCNC(C)=O)cn2CCNC(=O)CCc1ccc2n1[B-](F)(F)[N+]1=C(c3ccc[nH]3)C=CC1=C2` [Azamelatonin-1-NB590], the “NanoBRET Fold Response” value stood at 0.56 in assay [1] (0.1μM tracer); 0.56 in assay [1] (1μM tracer); 1.03 in assay [2] (0.1μM tracer); 1.05 in assay [2] (1μM tracer); 1.33 in assay [3] (0.1μM tracer); 1.18 in assay [3] (1μM tracer). The “NanoBRET Fold Response” value in assay [4] (0.1μM tracer) stood at 0.87; in assay [4] (1μM tracer) it was 0.95; in assay [5] (0.1μM tracer), 0.98; in assay [5] (1μM tracer), 0.98.
On to `O=C(CCOCCOCCOCCOCCNC(=O)CCc1ccc2n1[B-](F)(F)[N+]1=C(c3ccc[nH]3)C=CC1=C2)NCCCN1CCN(C2=Nc3ccccc3Oc3ccc(Cl)cc32)CC1` [Loxapine-a-2-NB590], for which the “NanoBRET Fold Response” value in assay [1] (PDGFRB, tracer 0.1μM) was determined as 1.12; in assay [1] (PDGFRB, tracer 1μM) it was 1.00; in assay [2] (LHCGR, tracer 0.1μM), 0.97; in assay [2] (LHCGR, tracer 1μM) it was 1.15; in assay [3] (XCR1, tracer 0.1μM), 0.44; in assay [3] (XCR1, tracer 1μM), 0.91. The “NanoBRET Fold Response” value stood at 1.13 in assay [4] (ADORA1, tracer 0.1μM); 1.04 in assay [4] (ADORA1, tracer 1μM); 0.94 in assay [5] (P2RY14, tracer 0.1μM); 0.98 in assay [5] (P2RY14, tracer 1μM).
On to `COc1ccccc1N1CCN(CCCCN2C(=O)c3ccc(CNC(=O)CCOCCOCCOCCOCCNC(=O)CCc4ccc5n4[B-](F)(F)[N+]4=C(c6ccc[nH]6)C=CC4=C5)cc3C2=O)CC1` [NAN-190-2-NB590], for which the “NanoBRET Fold Response” value in assay [1] (PDGFRB, tracer 0.1μM) came to 0.99; in assay [1] (PDGFRB, tracer 1μM) it was 1.00; in assay [2] (LHCGR, tracer 0.1μM), 0.98; in assay [2] (LHCGR, tracer 1μM), 1.04; in assay [3] (XCR1, tracer 0.1μM), 1.44; in assay [4] (ADORA1, tracer 0.1μM), 1.10. Further, the “NanoBRET Fold Response” value came out at 0.92 in assay [4] (ADORA1, tracer 1μM) and 1.02 in assay [5] (P2RY14, tracer 0.1μM).
Regarding `CC(C)N(CC[C@H](c1ccccc1)c1cc(CCNC(=O)c2ccc(CNC(=O)CCc3ccc4n3[B-](F)(F)[N+]3=C(c5ccc[nH]5)C=CC3=C4)cc2)ccc1O)C(C)C` [Tolterodine-BZ-NB590], the “NanoBRET Fold Response” value in assay [1] (PDGFRB, tracer 0.1μM) stood at 1.14; in assay [1] (PDGFRB, tracer 1μM) it was 1.21; in assay [2] (LHCGR, tracer 0.1μM), 0.98; in assay [2] (LHCGR, tracer 1μM), 1.05; in assay [3] (XCR1, tracer 0.1μM) it was 0.80; in assay [3] (XCR1, tracer 1μM), 0.95. Further, the “NanoBRET Fold Response” value in assay [4] (ADORA1, tracer 0.1μM) is listed as 1.18; in assay [4] (ADORA1, tracer 1μM) it was 1.02; in assay [5] (P2RY14, tracer 0.1μM), 0.86; in assay [5] (P2RY14, tracer 1μM) it was 0.88.
Consider `O=C(CCc1ccc2n1[B-](F)(F)[N+]1=C(c3ccc[nH]3)C=CC1=C2)NCCOCCOCCNC(=O)OCCOCCN1CCN(C2=Nc3ccccc3Sc3ccccc32)CC1` [Quetiapine-a-2-NB590], for which the “NanoBRET Fold Response” value in assay [1] (PDGFRB, tracer 0.1μM) is on record as 1.13; in assay [1] (PDGFRB, tracer 1μM), 1.03; in assay [2] (LHCGR, tracer 0.1μM) it was 1.01; in assay [2] (LHCGR, tracer 1μM), 0.79; in assay [3] (XCR1, tracer 0.1μM), 1.07; in assay [3] (XCR1, tracer 1μM), 1.04. For the same compound, the “NanoBRET Fold Response” value in assay [4] (ADORA1, tracer 0.1μM) is on record as 1.30; in assay [4] (ADORA1, tracer 1μM) it was 1.07; in assay [5] (P2RY14, tracer 0.1μM), 0.96; in assay [5] (P2RY14, tracer 1μM), 0.93.
